Test results: US8952024B2, “Herbicidal pyrimidone derivatives” (E I du Pont de Nemours and Company, priority 2009, dated 2015)

Columns and labels:
Type in all cases: in vivo
[1] = system: wheat (Triticum aestivum); assay: Test A pre-/postemergence plant response
Summary of the method: (§1)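 Pre: directed soil spray on seeded loam/sand blend. Post: same formulation (non-phytotoxic solvent + surfactant) on 2–10 cm plants, 1–2 leaf stage. Greenhouse ~10 d; visual injury score 0–100 vs untreated.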

[2] = system: large crabgrass (Digitaria sanguinalis); assay: Test A pre-/postemergence plant response
Summary of the method: as §1

[3] = system: barnyardgrass (Echinochloa crus-galli); assay: Test A pre-/postemergence plant response
Summary of the method: as §1

[4] = system: velvetleaf (Abutilon theophrasti); assay: Test A pre-/postemergence plant response
Summary of the method: as §1

[5] = system: morningglory (Ipomoea spp.); assay: Test A pre-/postemergence plant response
Summary of the method: as §1

corn (Zea mays) = assay: Test A pre-/postemergence plant response
Summary of the method: as §1

[6] = system: giant foxtail (Setaria faberii); assay: Test A pre-/postemergence plant response
Summary of the method: as §1

[7] = system: pigweed (Amaranthus retroflexus); assay: Test A pre-/postemergence plant response
Summary of the method: as §1

[8] = system: barnyardgrass (Echinochloa crus-galli); assay: Test B flooded paddy test; conditions: for Plant response rating, Flood, Barnyardgrass: 250 g ai/ha, flooded paddy test, visual rating on 0 to 100 scale (0 no effect, 100 complete control) after 13 to 15 days; for Plant response rating, Barnyardgrass: Flood (flooded paddy test), 13 to 15 days; for Barnyardgrass plant response rating: Flood, 31 g ai/ha, scale 0 to 100 (0 no effect, 100 complete control)
Summary of the method: (§2)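 Greenhouse-held for 13 to 15 days, treated pots were compared visually with controls and scored 0–100 (0, no effect). Treatment had been made into paddy water kept at 3 cm above the soil, with plants at the 2-leaf stage.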

[9] = system: ducksalad (Heteranthera limosa); assay: Test B flooded paddy test; conditions: for Plant response rating, Flood, Ducksalad: 250 g ai/ha, flooded paddy test, visual rating on 0 to 100 scale (0 no effect, 100 complete control) after 13 to 15 days; for Plant response rating, Ducksalad: Flood (flooded paddy test), 13 to 15 days; for Ducksalad plant response rating: Flood, 31 g ai/ha, scale 0 to 100 (0 no effect, 100 complete control)
Summary of the method: as §2

[10] = system: umbrella sedge (Cyperus difformis); assay: Test B flooded paddy test; conditions: for Plant response rating, Flood, Sedge, Umbrella: 250 g ai/ha, flooded paddy test, visual rating on 0 to 100 scale (0 no effect, 100 complete control) after 13 to 15 days; for Plant response rating, Sedge, Umbrella: Flood (flooded paddy test), 13 to 15 days; for Sedge, Umbrella plant response rating: Flood, 31 g ai/ha, scale 0 to 100 (0 no effect, 100 complete control)
Summary of the method: as §2

rice (Oryza sativa) = assay: Test B flooded paddy test; conditions: for Plant response rating, Flood, Rice: 250 g ai/ha, flooded paddy test, visual rating on 0 to 100 scale (0 no effect, 100 complete control) after 13 to 15 days; for Plant response rating, Rice: Flood (flooded paddy test), 13 to 15 days; for Rice plant response rating: Flood, 31 g ai/ha, scale 0 to 100 (0 no effect, 100 complete control)
Summary of the method: as §2

[11] = Postemergence, 125 g ai/ha, 0 to 100 scale where 0 is no effect and 100 is complete control
[12] = Postemergence, 500 g ai/ha, 0 to 100 scale, 0 = no effect, 100 = complete control, approx. ten days
[13] = Preemergence, 125 g ai/ha, 0 to 100 scale, 0 = no effect, 100 = complete control
[14] = Preemergence, 500 g ai/ha, visual injury, 0 to 100 scale (0 no effect, 100 complete control), approx. ten days
[15] = 62 g ai/ha, scale of 0 to 100 where 0 is no effect and 100 is complete control
[16] = 125 g ai/ha, scale 0 to 100, 0 is no effect, 100 is complete control

Compound: CCCn1c(-c2ccsc2)ncc(C(=O)C2=C(O)CCCC2=O)c1=O [Compound 93]
- Plant response rating, Wheat [1, 11]: 0
- Plant response rating, Wheat [1, 12]: 0
- Plant response rating, Wheat [1, 13]: 0
- Plant response rating, Wheat [1, 14]: 0
- Plant response rating, Crabgrass, Large [2, 11]: 90
- Plant response rating, Crabgrass, Large [2, 12]: 100
- Plant response rating, Crabgrass, Large [2, 13]: 90
- Plant response rating, Crabgrass, Large [2, 14]: 100
- Plant response rating, Barnyardgrass [3, 11]: 90
- Plant response rating, Barnyardgrass [3, 12]: 90
- Plant response rating, Barnyardgrass [3, 13]: 80
- Plant response rating, Barnyardgrass [3, 14]: 100
- Plant response rating, Velvetleaf [4, 11]: 100
- Plant response rating, Velvetleaf [4, 12]: 100
- Plant response rating, Velvetleaf [4, 13]: 90
- Plant response rating, Velvetleaf [4, 14]: 100
- Plant response rating, Morningglory [5, 11]: 100
- Plant response rating, Morningglory [5, 12]: 100
- Plant response rating, Morningglory [5, 13]: 80
- Plant response rating, Morningglory [5, 14]: 90
- Plant response rating, Corn (corn (Zea mays); [11]): 10
- Plant response rating, Corn (corn (Zea mays); [12]): 30
- Plant response rating, Corn (corn (Zea mays); [13]): 0
- Plant response rating, Corn (corn (Zea mays); [14]): 0
- Plant response rating, Foxtail, Giant [6, 11]: 80
- Plant response rating, Foxtail, Giant [6, 12]: 90
- Plant response rating, Foxtail, Giant [6, 13]: 60
- Plant response rating, Foxtail, Giant [6, 14]: 80
- Plant response rating, Pigweed [7, 11]: 100
- Plant response rating, Pigweed [7, 12]: 100
- Plant response rating, Pigweed [7, 13]: 100
- Plant response rating, Pigweed [7, 14]: 100
- Plant response rating, Flood, Barnyardgrass [8]: 85
- Plant response rating, Barnyardgrass [8, 15]: 60
- Plant response rating, Barnyardgrass [8, 16]: 75
- Barnyardgrass plant response rating [8]: 30
- Plant response rating, Flood, Ducksalad [9]: 80
- Plant response rating, Ducksalad [9, 15]: 55
- Plant response rating, Ducksalad [9, 16]: 80
- Ducksalad plant response rating [9]: 40
- Plant response rating, Flood, Sedge, Umbrella [10]: 90
- Plant response rating, Sedge, Umbrella [10, 15]: 75
- Plant response rating, Sedge, Umbrella [10, 16]: 80
- Sedge, Umbrella plant response rating [10]: 70
- Plant response rating, Flood, Rice (rice (Oryza sativa)): 45
- Plant response rating, Rice (rice (Oryza sativa); [15]): 15
- Plant response rating, Rice (rice (Oryza sativa); [16]): 20
- Rice plant response rating (rice (Oryza sativa)): 0

Compound: CCCCCCn1c(-c2ccccc2)ncc(C(=O)C2=C(O)CCCC2=O)c1=O [Compound 94]
- Plant response rating, Wheat [1, 11]: 0
- Plant response rating, Wheat [1, 12]: 0
- Plant response rating, Wheat [1, 13]: 0
- Plant response rating, Wheat [1, 14]: 0
- Plant response rating, Crabgrass, Large [2, 11]: 80
- Plant response rating, Crabgrass, Large [2, 12]: 90
- Plant response rating, Crabgrass, Large [2, 13]: 30
- Plant response rating, Crabgrass, Large [2, 14]: 90
- Plant response rating, Barnyardgrass [3, 11]: 90
- Plant response rating, Barnyardgrass [3, 12]: 90
- Plant response rating, Barnyardgrass [3, 13]: 0
- Plant response rating, Barnyardgrass [3, 14]: 30
- Plant response rating, Velvetleaf [4, 11]: 100
- Plant response rating, Velvetleaf [4, 12]: 100
- Plant response rating, Velvetleaf [4, 13]: 40
- Plant response rating, Velvetleaf [4, 14]: 70
- Plant response rating, Morningglory [5, 11]: 100
- Plant response rating, Morningglory [5, 12]: 100
- Plant response rating, Morningglory [5, 13]: 10
- Plant response rating, Morningglory [5, 14]: 40
- Plant response rating, Corn (corn (Zea mays); [11]): 0
- Plant response rating, Corn (corn (Zea mays); [12]): 10
- Plant response rating, Corn (corn (Zea mays); [13]): 0
- Plant response rating, Corn (corn (Zea mays); [14]): 0
- Plant response rating, Foxtail, Giant [6, 11]: 30
- Plant response rating, Foxtail, Giant [6, 12]: 80
- Plant response rating, Foxtail, Giant [6, 13]: 0
- Plant response rating, Foxtail, Giant [6, 14]: 40
- Plant response rating, Pigweed [7, 11]: 100
- Plant response rating, Pigweed [7, 12]: 100
- Plant response rating, Pigweed [7, 13]: 70
- Plant response rating, Pigweed [7, 14]: 100
- Plant response rating, Flood, Barnyardgrass [8]: 60
- Plant response rating, Barnyardgrass [8, 15]: 0
- Plant response rating, Barnyardgrass [8, 16]: 40
- Barnyardgrass plant response rating [8]: 0
- Plant response rating, Flood, Ducksalad [9]: 30
- Plant response rating, Ducksalad [9, 15]: 20
- Plant response rating, Ducksalad [9, 16]: 25
- Ducksalad plant response rating [9]: 0
- Plant response rating, Flood, Sedge, Umbrella [10]: 85
- Plant response rating, Sedge, Umbrella [10, 15]: 70
- Plant response rating, Sedge, Umbrella [10, 16]: 85
- Sedge, Umbrella plant response rating [10]: 20
- Plant response rating, Flood, Rice (rice (Oryza sativa)): 35
- Plant response rating, Rice (rice (Oryza sativa); [15]): 0
- Plant response rating, Rice (rice (Oryza sativa); [16]): 20
- Rice plant response rating (rice (Oryza sativa)): 0

Compound: CCOCCn1c(-c2ccccc2)ncc(C(=O)C2=C(O)CCCC2=O)c1=O [Compound 96]
- Plant response rating, Wheat [1, 11]: 0
- Plant response rating, Wheat [1, 12]: 20
- Plant response rating, Wheat [1, 13]: 0
- Plant response rating, Wheat [1, 14]: 0
- Plant response rating, Crabgrass, Large [2, 11]: 90
- Plant response rating, Crabgrass, Large [2, 12]: 100
- Plant response rating, Crabgrass, Large [2, 13]: 100
- Plant response rating, Crabgrass, Large [2, 14]: 100
- Plant response rating, Barnyardgrass [3, 11]: 90
- Plant response rating, Barnyardgrass [3, 12]: 90
- Plant response rating, Barnyardgrass [3, 13]: 90
- Plant response rating, Barnyardgrass [3, 14]: 100
- Plant response rating, Velvetleaf [4, 11]: 100
- Plant response rating, Velvetleaf [4, 12]: 100
- Plant response rating, Velvetleaf [4, 13]: 100
- Plant response rating, Velvetleaf [4, 14]: 100
- Plant response rating, Morningglory [5, 11]: 100
- Plant response rating, Morningglory [5, 12]: 100
- Plant response rating, Morningglory [5, 13]: 80
- Plant response rating, Morningglory [5, 14]: 80
- Plant response rating, Corn (corn (Zea mays); [11]): 0
- Plant response rating, Corn (corn (Zea mays); [12]): 20
- Plant response rating, Corn (corn (Zea mays); [13]): 0
- Plant response rating, Corn (corn (Zea mays); [14]): 10
- Plant response rating, Foxtail, Giant [6, 11]: 70
- Plant response rating, Foxtail, Giant [6, 12]: 90
- Plant response rating, Foxtail, Giant [6, 13]: 50
- Plant response rating, Foxtail, Giant [6, 14]: 80
- Plant response rating, Pigweed [7, 11]: 100
- Plant response rating, Pigweed [7, 12]: 100
- Plant response rating, Pigweed [7, 13]: 100
- Plant response rating, Pigweed [7, 14]: 100
- Plant response rating, Flood, Barnyardgrass [8]: 85
- Plant response rating, Barnyardgrass [8, 15]: 65
- Plant response rating, Barnyardgrass [8, 16]: 80
- Barnyardgrass plant response rating [8]: 60
- Plant response rating, Flood, Ducksalad [9]: 75
- Plant response rating, Ducksalad [9, 15]: 0
- Plant response rating, Ducksalad [9, 16]: 50
- Ducksalad plant response rating [9]: 0
- Plant response rating, Flood, Sedge, Umbrella [10]: 90
- Plant response rating, Sedge, Umbrella [10, 15]: 75
- Plant response rating, Sedge, Umbrella [10, 16]: 85
- Sedge, Umbrella plant response rating [10]: 50
- Plant response rating, Flood, Rice (rice (Oryza sativa)): 15
- Plant response rating, Rice (rice (Oryza sativa); [15]): 15
- Plant response rating, Rice (rice (Oryza sativa); [16]): 15
- Rice plant response rating (rice (Oryza sativa)): 10
